Measurements: article PMC11385396 (Journal of Ginseng Research, 2024)

What was measured:
Format in all cases: in vivo, Sprague-Dawley rats
[1] = Coagulation function; details: rats, 12h after last dose of one week gavage; compared with the control group
[2] = tested on: coagulation factor II; assay: Plasma coagulation factor II in rats; details: 12h after last dose of one week gavage
[3] = tested on: coagulation factor X; assay: Plasma coagulation factor X in rats; details: 12h after last dose of one week gavage

**Q.** Which results are given for `CC(=O)CC(c1ccccc1)c1c(O)c2ccccc2oc1=O` (stereo not shown) [Warfarin]?
**A.** APTT [1]: significantly increased; INR [1]: significantly increased; plasma coagulation factor II [2]: reduce; plasma coagulation factor X [3]: reduce
